# Measurements taken from publication PMC9481151, “Discovery of new symmetrical and asymmetrical nitrile-containing 1,4-dihydropyridine derivatives as dual kinases and P-glycoprotein inhibitors: synthesis, in vitro assays, and in silico studies” (Journal of Enzyme Inhibition and Medicinal Chemistry, 2022).
# What was measured:
# NCI-H322M = assay: NCI single dose (10 µM) SRB screen; assay type: cell-based; conditions: non-small cell lung cancer, 48 h
# COLO 205 = assay: NCI single dose (10 µM) SRB screen; assay type: cell-based, human; conditions: colon cancer, 48 h
# A498 = assay: NCI single dose (10 µM) SRB screen; assay type: cell-based, human; conditions: renal cancer, 48 h
# Candida albicans = assay: Agar well diffusion method; conditions: relative to clotrimazole
# T-47D = assay: NCI single dose (10 µM) SRB screen; assay type: cell-based, human; conditions: breast cancer, 48 h
# HCT-15 = assay: NCI single dose (10 µM) SRB screen; assay type: cell-based, human; conditions: colon cancer, 48 h
# Bacillus subtilis = assay: Agar well diffusion method; conditions: relative to ciprofloxacin
# M14 = assay: NCI single dose (10 µM) SRB screen; assay type: cell-based, human; conditions: melanoma, 48 h
# NCI-H23 = assay: NCI single dose (10 µM) SRB screen; assay type: cell-based, human; conditions: non-small cell lung cancer, 48 h
# NCI/ADR-RES = assay: NCI single dose (10 µM) SRB screen; assay type: cell-based, human; conditions: ovarian cancer, 48 h
# K-562 = assay: NCI single dose (10 µM) SRB screen; assay type: cell-based, human; conditions: leukaemia, 48 h
# BT-549 = assay: NCI single dose (10 µM) SRB screen; assay type: cell-based, human; conditions: breast cancer, 48 h
# SK-MEL-28 = assay: NCI single dose (10 µM) SRB screen; assay type: cell-based, human; conditions: melanoma, 48 h
# MOLT-4 = assay: NCI single dose (10 µM) SRB screen; assay type: cell-based, human; conditions: leukaemia, 48 h
# 786-0 = assay: NCI single dose (10 µM) SRB screen; assay type: cell-based, human; conditions: renal cancer, 48 h
# KM12 = assay: NCI single dose (10 µM) SRB screen; assay type: cell-based, human; conditions: colon cancer, 48 h
# NCI-H460 = assay: NCI single dose (10 µM) SRB screen; assay type: cell-based, human; conditions: non-small cell lung cancer, 48 h
# IGROV1 = assay: NCI single dose (10 µM) SRB screen; assay type: cell-based, human; conditions: ovarian cancer, 48 h
# RXF 393 = assay: NCI single dose (10 µM) SRB screen; assay type: cell-based, human; conditions: renal cancer, 48 h
# Aspergillus flavus = assay: Agar well diffusion method
# HT29 = assay: NCI single dose (10 µM) SRB screen; assay type: cell-based, human; conditions: colon cancer, 48 h
# SW-620 = assay: NCI single dose (10 µM) SRB screen; assay type: cell-based, human; conditions: colon cancer, 48 h
# NCI 60 cancer cell lines = assay: NCI single dose (10 µM) SRB screen, mean over panel; assay type: cell-based, human; conditions: mean over 60 cell lines, 48 h
# HOP-62 = assay: NCI single dose (10 µM) SRB screen; assay type: cell-based, human; conditions: non-small cell lung cancer, 48 h
# SF-539 = assay: NCI single dose (10 µM) SRB screen; assay type: cell-based, human; conditions: CNS cancer, 48 h
# HL-60(TB) = assay: NCI single dose (10 µM) SRB screen; assay type: cell-based, human; conditions: leukaemia, 48 h
# UO-31 = assay: NCI single dose (10 µM) SRB screen; assay type: cell-based, human; conditions: renal cancer, 48 h
# U251 = assay: NCI single dose (10 µM) SRB screen; assay type: cell-based, human; conditions: CNS cancer, 48 h
# HOP-92 = assay: NCI single dose (10 µM) SRB screen; assay type: cell-based, human; conditions: non-small cell lung cancer, 48 h
# OVCAR-3 = assay: NCI single dose (10 µM) SRB screen; assay type: cell-based, human; conditions: ovarian cancer, 48 h
# CCRF-CEM = assay: NCI single dose (10 µM) SRB screen; assay type: cell-based, human; conditions: leukaemia, 48 h
# Pseudomonas aeruginosa = assay: Agar well diffusion method; conditions: relative to ciprofloxacin
# SN12C = assay: NCI single dose (10 µM) SRB screen; assay type: cell-based, human; conditions: renal cancer, 48 h
# NCI-H226 = assay: NCI single dose (10 µM) SRB screen; assay type: cell-based, human; conditions: non-small cell lung cancer, 48 h
# MCF7 = assay: NCI single dose (10 µM) SRB screen; assay type: cell-based, human; conditions: breast cancer, 48 h
# MALME-3M = assay: NCI single dose (10 µM) SRB screen; assay type: cell-based, human; conditions: melanoma, 48 h
# HS578T = assay: NCI single dose (10 µM) SRB screen; assay type: cell-based, human; conditions: breast cancer, 48 h
# MDA-MB-231 = assay: NCI single dose (10 µM) SRB screen; assay type: cell-based, human; conditions: breast cancer, 48 h
# OVCAR-8 = assay: NCI single dose (10 µM) SRB screen; assay type: cell-based, human; conditions: ovarian cancer, 48 h
# SK-MEL-2 = assay: NCI single dose (10 µM) SRB screen; assay type: cell-based, human; conditions: melanoma, 48 h
# Escherichia coli = assay: Agar well diffusion method; conditions: relative to ciprofloxacin
# UACC-257 = assay: NCI single dose (10 µM) SRB screen; assay type: cell-based, human; conditions: melanoma, 48 h
# OVCAR-5 = assay: NCI single dose (10 µM) SRB screen; assay type: cell-based, human; conditions: ovarian cancer, 48 h
# EKVX = assay: NCI single dose (10 µM) SRB screen; assay type: cell-based, human; conditions: non-small cell lung cancer, 48 h
# TK-10 = assay: NCI single dose (10 µM) SRB screen; assay type: cell-based, human; conditions: renal cancer, 48 h
# SF-295 = assay: NCI single dose (10 µM) SRB screen; assay type: cell-based, human; conditions: CNS cancer, 48 h
# UACC-62 = assay: NCI single dose (10 µM) SRB screen; assay type: cell-based, human; conditions: melanoma, 48 h
# SNB-19 = assay: NCI single dose (10 µM) SRB screen; assay type: cell-based, human; conditions: CNS cancer, 48 h
# DU-145 = assay: NCI single dose (10 µM) SRB screen; assay type: cell-based, human; conditions: prostate cancer, 48 h
# SR = assay: NCI single dose (10 µM) SRB screen; assay type: cell-based, human; conditions: leukaemia, 48 h
# ACHN = assay: NCI single dose (10 µM) SRB screen; assay type: cell-based, human; conditions: renal cancer, 48 h
# SK-OV-3 = assay: NCI single dose (10 µM) SRB screen; assay type: cell-based, human; conditions: ovarian cancer, 48 h
# A549/ATCC = assay: NCI single dose (10 µM) SRB screen; assay type: cell-based, human; conditions: non-small cell lung cancer, 48 h
# Staphylococcus aureus = assay: Agar well diffusion method; conditions: relative to ciprofloxacin
# MDA-MB-435 = assay: NCI single dose (10 µM) SRB screen; assay type: cell-based, human; conditions: melanoma, 48 h
# CAKI-1 = assay: NCI single dose (10 µM) SRB screen; assay type: cell-based, human; conditions: renal cancer, 48 h
# NCI-H522 = assay: NCI single dose (10 µM) SRB screen; assay type: cell-based, human; conditions: non-small cell lung cancer, 48 h
# HCC-2998 = assay: NCI single dose (10 µM) SRB screen; assay type: cell-based, human; conditions: colon cancer, 48 h
# SF-268 = assay: NCI single dose (10 µM) SRB screen; assay type: cell-based, human; conditions: CNS cancer, 48 h
# SK-MEL-5 = assay: NCI single dose (10 µM) SRB screen; assay type: cell-based, human; conditions: melanoma, 48 h
# SNB-75 = assay: NCI single dose (10 µM) SRB screen; assay type: cell-based, human; conditions: CNS cancer, 48 h
# OVCAR-4 = assay: NCI single dose (10 µM) SRB screen; assay type: cell-based, human; conditions: ovarian cancer, 48 h
# LOX IMVI = assay: NCI single dose (10 µM) SRB screen; assay type: cell-based, human; conditions: melanoma, 48 h
# PC-3 = assay: NCI single dose (10 µM) SRB screen; assay type: cell-based, human; conditions: prostate cancer, 48 h
# RPMI-8226 = assay: NCI single dose (10 µM) SRB screen; assay type: cell-based, human; conditions: leukaemia, 48 h
# HCT-116 = assay: NCI single dose (10 µM) SRB screen; assay type: cell-based, human; conditions: colon cancer, 48 h
# MDA-MB-468 = assay: NCI single dose (10 µM) SRB screen; assay type: cell-based, human; conditions: breast cancer, 48 h
smiles,measurement,setting,value
"COC(=O)C1=C(C)NC(C)=C(C(=O)OC(C)(C)C)C1c1cccc(C#N)c1 (racemic) [Compound 2c, (±)-3-Tert-butyl 5-Methyl 4-(3-cyanophenyl)-2,6-dimethyl-1,4-dihydropyridine-3,5-dicarboxylate]",GI% NCI-H322M,NCI-H322M,– (Only GI% ≥ 10 are shown)
same,GI% COLO 205,COLO 205,– (Only GI% ≥ 10 are shown)
same,GI% A498,A498,– (Only GI% ≥ 10 are shown)
same,"% activity index, C. albicans",Candida albicans,– (Values below 25 are of limited value and not shown as they refer either to inactive or non-diffusing compounds)
same,GI% T-47D,T-47D,12%
same,GI% HCT-15,HCT-15,– (Only GI% ≥ 10 are shown)
same,"% activity index, B. subtilis",Bacillus subtilis,– (Values below 25 are of limited value and not shown as they refer either to inactive or non-diffusing compounds)
same,GI% M14,M14,– (Only GI% ≥ 10 are shown)
same,GI% NCI-H23,NCI-H23,– (Only GI% ≥ 10 are shown)
same,melting point,,157 to 159 °C
same,GI% NCI/ADR-RES,NCI/ADR-RES,– (Only GI% ≥ 10 are shown)
same,GI% K-562,K-562,– (Only GI% ≥ 10 are shown)
same,GI% BT-549,BT-549,– (Only GI% ≥ 10 are shown)
same,GI% SK-MEL-28,SK-MEL-28,– (Only GI% ≥ 10 are shown)
same,GI% MOLT-4,MOLT-4,– (Only GI% ≥ 10 are shown)
same,GI% 786-0,786-0,– (Only GI% ≥ 10 are shown)
same,GI% KM12,KM12,– (Only GI% ≥ 10 are shown)
same,GI% NCI-H460,NCI-H460,– (Only GI% ≥ 10 are shown)
same,GI% IGROV1,IGROV1,– (Only GI% ≥ 10 are shown)
same,GI% RXF 393,RXF 393,– (Only GI% ≥ 10 are shown)
same,zone of inhibition at 1000 µg/mL,"Aspergillus flavus; Aspergillus flavus, 24 h, read-out: Diameter of inhibition zone, A. flavus",7 mm
same,"% activity index, A. flavus",Aspergillus flavus; relative to clotrimazole,28%
same,GI% HT29,HT29,– (Only GI% ≥ 10 are shown)
same,GI% SW-620,SW-620,– (Only GI% ≥ 10 are shown)
same,Mean GI%,NCI 60 cancer cell lines,0%
same,GI% HOP-62,HOP-62,– (Only GI% ≥ 10 are shown)
same,GI% SF-539,SF-539,– (Only GI% ≥ 10 are shown)
same,GI% HL-60(TB),HL-60(TB),– (Only GI% ≥ 10 are shown)
same,GI% UO-31,UO-31,– (Only GI% ≥ 10 are shown)
same,GI% U251,U251,– (Only GI% ≥ 10 are shown)
same,GI% HOP-92,HOP-92,10%
same,GI% OVCAR-3,OVCAR-3,– (Only GI% ≥ 10 are shown)
same,GI% CCRF-CEM,CCRF-CEM,– (Only GI% ≥ 10 are shown)
same,"% activity index, P. aeruginosa",Pseudomonas aeruginosa,– (Values below 25 are of limited value and not shown as they refer either to inactive or non-diffusing compounds)
same,GI% SN12C,SN12C,– (Only GI% ≥ 10 are shown)
same,GI% NCI-H226,NCI-H226,– (Only GI% ≥ 10 are shown)
same,GI% MCF7,MCF7,13%
same,GI% MALME-3M,MALME-3M,– (Only GI% ≥ 10 are shown)
same,GI% HS578T,HS578T,– (Only GI% ≥ 10 are shown)
same,GI% MDA-MB-231,MDA-MB-231,– (Only GI% ≥ 10 are shown)
same,GI% OVCAR-8,OVCAR-8,– (Only GI% ≥ 10 are shown)
same,GI% SK-MEL-2,SK-MEL-2,– (Only GI% ≥ 10 are shown)
same,"% activity index, E. coli",Escherichia coli,– (Values below 25 are of limited value and not shown as they refer either to inactive or non-diffusing compounds)
same,GI% UACC-257,UACC-257,– (Only GI% ≥ 10 are shown)
same,GI% OVCAR-5,OVCAR-5,– (Only GI% ≥ 10 are shown)
same,GI% EKVX,EKVX,– (Only GI% ≥ 10 are shown)
same,GI% TK-10,TK-10,– (Only GI% ≥ 10 are shown)
same,GI% SF-295,SF-295,– (Only GI% ≥ 10 are shown)
same,GI% UACC-62,UACC-62,– (Only GI% ≥ 10 are shown)
same,GI% SNB-19,SNB-19,– (Only GI% ≥ 10 are shown)
same,GI% DU-145,DU-145,– (Only GI% ≥ 10 are shown)
same,GI% SR,SR,15%
same,GI% ACHN,ACHN,– (Only GI% ≥ 10 are shown)
same,GI% SK-OV-3,SK-OV-3,– (Only GI% ≥ 10 are shown)
same,GI% A549/ATCC,A549/ATCC,– (Only GI% ≥ 10 are shown)
same,"% activity index, S. aureus",Staphylococcus aureus,– (Values below 25 are of limited value and not shown as they refer either to inactive or non-diffusing compounds)
same,GI% MDA-MB-435,MDA-MB-435,– (Only GI% ≥ 10 are shown)
same,GI% CAKI-1,CAKI-1,15%
same,GI% NCI-H522,NCI-H522,– (Only GI% ≥ 10 are shown)
same,GI% HCC-2998,HCC-2998,– (Only GI% ≥ 10 are shown)
same,GI% SF-268,SF-268,– (Only GI% ≥ 10 are shown)
same,GI% SK-MEL-5,SK-MEL-5,– (Only GI% ≥ 10 are shown)
same,GI% SNB-75,SNB-75,27%
same,GI% OVCAR-4,OVCAR-4,– (Only GI% ≥ 10 are shown)
same,GI% LOX IMVI,LOX IMVI,– (Only GI% ≥ 10 are shown)
same,GI% PC-3,PC-3,18%
same,GI% RPMI-8226,RPMI-8226,12%
same,GI% HCT-116,HCT-116,– (Only GI% ≥ 10 are shown)
same,GI% MDA-MB-468,MDA-MB-468,– (Only GI% ≥ 10 are shown)
